Test results reported in patent US6426330B1, “Satiety inducing composition comprising Neuropeptide Y analogues and methods of inducing satiety and treating a disease or condition associated with it” (East Carolina University, priority 1995, dated 2002).
Square brackets hold non-standard residues; d marks the D form. Ends that are not written are not given here.

Test system: normotensive Sprague-Dawsley rats
Assay: In vivo activity: blood pressure and heart rate after intravenous dosing in catheterised rats
Parameters: species or system rat
Protocol: Male Sprague-Dawley rats obtained from Charles River Laboratories, Wilmington, Mass., and weighing 276-300 g, were group housed at 22° C. and kept on 12 hour light/dark cycle. Food and water were provided ad lib.
Animals were anesthetized with sodium pentobarbital (65 mg/kg) and under sterile conditions a one-inch incision was made in the fold of the left leg to expose the femoral blood vessels. Two lengths of PE-50 tubing filled with 10% heparin were inserted into the left femoral artery and left femoral vein for measurement of blood pressure and for drug delivery, respectively. The tubings were tunneled under the skin and exposed through the mid-scapular region. Animals were allowed at least 24 hours recovery prior to experiments.
A force transducer (Spectramed Model P23XL, Grass Instruments, Quincy, Mass., USA), and tachograph (Model 7P44D, Grass Instruments) was used for recording of systolic and diastolic pressures and heart rate from the femoral artery catheter. Patency of catheters was verified by flushing with either saline or 10% heparin.
A dose of either 30, 100, 500, 800 or 1000 nM/kg ([…]) of NPY27-36 (D-Tyr^27,36, D-Thr^32) (prepared as described in Example 1 above), or saline was delivered to the animal via the catheter in the left femoral vein. Changes in systolic and diastolic pressures and heart rater were recorded from the catheter in the left femoral artery over a 10 minute time interval.

[1] = given intraveneously, doses 30-1000 nM/kg, recorded over 10 minutes, normotensive rats

Substance: [dY]INLI[dT]RQR[dY]-NH2 [NPY27-36 (D-Tyr^27,36, D-Thr^32)]
- changes in mean arterial pressure and heart rate vs saline (dose 30 nM/kg i.v.): failed to produce changes that were significantly different from saline treatment
- changes in mean arterial pressure and heart rate vs saline (dose 100 nM/kg i.v.): failed to produce changes that were significantly different from saline treatment
- mean arterial pressure vs saline-treated controls (dose 500 nM/Kg i.v.): significantly different decreases
- heart rate vs saline controls (dose 500 nM/kg i.v.): significantly different increases
- mean arterial pressure vs saline-treated controls (dose 800 nM/Kg i.v.): significantly different decreases
- mean arterial pressure vs saline-treated controls (dose 1000 nM/Kg i.v.): significantly different decreases
- heart rate vs saline controls (dose 1000 nM/kg i.v.): significantly different increases
- heart rate [1]: increase
- mean arterial pressure [1]: dose-dependent decrease
